{"source": "the NIST ThermoML archive (doi:10.1021/je060257y)", "assay": "molar heat capacity at constant pressure", "settings": "101.33 kPa, Crystal", "note": "± gives the expanded uncertainty stated by the source.", "data": [{"compound": "CCCCc1cn(C)c(=O)n(C)c1=O", "note": "[2,4(1H,3H)-pyrimidinedione, 5-butyl-1,3-dimethyl-]", "values": [{"measurement": "molar heat capacity at constant pressure", "setting": "298.15 K", "result": "358.1 ± 14", "unit": "J/K/mol"}, {"measurement": "molar heat capacity at constant pressure", "setting": "303.15 K", "result": "544.2 ± 22", "unit": "J/K/mol"}]}, {"compound": "CCc1cn(C)c(=O)n(C)c1=O", "note": "[2,4(1H,3H)-pyrimidinedione, 5-ethyl-1,3-dimethyl-]", "values": [{"measurement": "molar heat capacity at constant pressure", "setting": "298.15 K", "result": "241.1 ± 8.5", "unit": "J/K/mol"}, {"measurement": "molar heat capacity at constant pressure", "setting": "303.15 K", "result": "250.1 ± 8.7", "unit": "J/K/mol"}, {"measurement": "molar heat capacity at constant pressure", "setting": "308.15 K", "result": "256.5 ± 8.8", "unit": "J/K/mol"}, {"measurement": "molar heat capacity at constant pressure", "setting": "313.15 K", "result": "261 ± 8.9", "unit": "J/K/mol"}, {"measurement": "molar heat capacity at constant pressure", "setting": "318.15 K", "result": "264.3 ± 9", "unit": "J/K/mol"}, {"measurement": "molar heat capacity at constant pressure", "setting": "323.15 K", "result": "267.4 ± 9.1", "unit": "J/K/mol"}, {"measurement": "molar heat capacity at constant pressure", "setting": "328.15 K", "result": "270.7 ± 9.1", "unit": "J/K/mol"}, {"measurement": "molar heat capacity at constant pressure", "setting": "333.15 K", "result": "275.2 ± 9.3", "unit": "J/K/mol"}, {"measurement": "molar heat capacity at constant pressure", "setting": "338.15 K", "result": "281.7 ± 9.4", "unit": "J/K/mol"}, {"measurement": "molar heat capacity at constant pressure", "setting": "343.15 K", "result": "291.1 ± 9.6", "unit": "J/K/mol"}]}, {"compound": "CCCCc1cc(=O)n(C)c(=O)n1C", "note": "[2,4(1H,3H)-pyrimidinedione, 6-butyl-1,3-dimethyl-]", "values": [{"measurement": "molar heat capacity at constant pressure", "setting": "298.15 K", "result": "296.4 ± 9.2", "unit": "J/K/mol"}, {"measurement": "molar heat capacity at constant pressure", "setting": "303.15 K", "result": "297.9 ± 9.2", "unit": "J/K/mol"}, {"measurement": "molar heat capacity at constant pressure", "setting": "308.15 K", "result": "299.4 ± 9.3", "unit": "J/K/mol"}, {"measurement": "molar heat capacity at constant pressure", "setting": "313.15 K", "result": "300.9 ± 9.3", "unit": "J/K/mol"}, {"measurement": "molar heat capacity at constant pressure", "setting": "318.15 K", "result": "302.1 ± 9.4", "unit": "J/K/mol"}, {"measurement": "molar heat capacity at constant pressure", "setting": "323.15 K", "result": "305.3 ± 9.5", "unit": "J/K/mol"}]}, {"compound": "CCc1cc(=O)n(C)c(=O)n1C", "note": "[2,4(1H,3H)-pyrimidinedione, 6-ethyl-1,3-dimethyl-]", "values": [{"measurement": "molar heat capacity at constant pressure", "setting": "298.15 K", "result": "241.8 ± 9.6", "unit": "J/K/mol"}, {"measurement": "molar heat capacity at constant pressure", "setting": "303.15 K", "result": "243.4 ± 9.7", "unit": "J/K/mol"}, {"measurement": "molar heat capacity at constant pressure", "setting": "308.15 K", "result": "245.3 ± 9.7", "unit": "J/K/mol"}, {"measurement": "molar heat capacity at constant pressure", "setting": "313.15 K", "result": "246.3 ± 9.7", "unit": "J/K/mol"}, {"measurement": "molar heat capacity at constant pressure", "setting": "318.15 K", "result": "248.3 ± 9.8", "unit": "J/K/mol"}, {"measurement": "molar heat capacity at constant pressure", "setting": "323.15 K", "result": "259.6 ± 10", "unit": "J/K/mol"}]}, {"compound": "O=c1cc[nH]c(=O)[nH]1", "note": "[2,4(1H,3H)-pyrimidinedione]", "values": [{"measurement": "molar heat capacity at constant pressure", "setting": "298.15 K", "result": "131.8 ± 4.7", "unit": "J/K/mol"}, {"measurement": "molar heat capacity at constant pressure", "setting": "303.15 K", "result": "135.5 ± 4.7", "unit": "J/K/mol"}, {"measurement": "molar heat capacity at constant pressure", "setting": "308.15 K", "result": "140.9 ± 4.9", "unit": "J/K/mol"}, {"measurement": "molar heat capacity at constant pressure", "setting": "313.15 K", "result": "143 ± 4.9", "unit": "J/K/mol"}, {"measurement": "molar heat capacity at constant pressure", "setting": "318.15 K", "result": "146.1 ± 5", "unit": "J/K/mol"}, {"measurement": "molar heat capacity at constant pressure", "setting": "323.15 K", "result": "149 ± 5.1", "unit": "J/K/mol"}, {"measurement": "molar heat capacity at constant pressure", "setting": "328.15 K", "result": "151.8 ± 5.1", "unit": "J/K/mol"}, {"measurement": "molar heat capacity at constant pressure", "setting": "333.15 K", "result": "154.3 ± 5.2", "unit": "J/K/mol"}, {"measurement": "molar heat capacity at constant pressure", "setting": "338.15 K", "result": "156.8 ± 5.2", "unit": "J/K/mol"}, {"measurement": "molar heat capacity at constant pressure", "setting": "343.15 K", "result": "157.4 ± 5.3", "unit": "J/K/mol"}]}, {"compound": "Cc1nc(O)nc(O)c1C", "note": "[2,4-dihydroxy-5,6-dimethylpyrimidine]", "values": [{"measurement": "molar heat capacity at constant pressure", "setting": "298.15 K", "result": "191.1 ± 5.9", "unit": "J/K/mol"}, {"measurement": "molar heat capacity at constant pressure", "setting": "303.15 K", "result": "198.3 ± 6.1", "unit": "J/K/mol"}, {"measurement": "molar heat capacity at constant pressure", "setting": "308.15 K", "result": "203.2 ± 6.3", "unit": "J/K/mol"}, {"measurement": "molar heat capacity at constant pressure", "setting": "313.15 K", "result": "208 ± 6.4", "unit": "J/K/mol"}, {"measurement": "molar heat capacity at constant pressure", "setting": "318.15 K", "result": "212 ± 6.6", "unit": "J/K/mol"}, {"measurement": "molar heat capacity at constant pressure", "setting": "323.15 K", "result": "215.6 ± 6.7", "unit": "J/K/mol"}, {"measurement": "molar heat capacity at constant pressure", "setting": "328.15 K", "result": "219.1 ± 6.8", "unit": "J/K/mol"}, {"measurement": "molar heat capacity at constant pressure", "setting": "333.15 K", "result": "223.3 ± 6.9", "unit": "J/K/mol"}, {"measurement": "molar heat capacity at constant pressure", "setting": "338.15 K", "result": "229.3 ± 7.1", "unit": "J/K/mol"}, {"measurement": "molar heat capacity at constant pressure", "setting": "343.15 K", "result": "234.1 ± 7.3", "unit": "J/K/mol"}]}, {"compound": "Cc1cc(O)nc(O)n1", "note": "[2,4-dihydroxy-6-methylpyrimidine]", "values": [{"measurement": "molar heat capacity at constant pressure", "setting": "298.15 K", "result": "162.5 ± 5", "unit": "J/K/mol"}, {"measurement": "molar heat capacity at constant pressure", "setting": "303.15 K", "result": "167.2 ± 5.2", "unit": "J/K/mol"}, {"measurement": "molar heat capacity at constant pressure", "setting": "308.15 K", "result": "170.2 ± 5.3", "unit": "J/K/mol"}, {"measurement": "molar heat capacity at constant pressure", "setting": "313.15 K", "result": "172.2 ± 5.3", "unit": "J/K/mol"}, {"measurement": "molar heat capacity at constant pressure", "setting": "318.15 K", "result": "176.9 ± 5.5", "unit": "J/K/mol"}, {"measurement": "molar heat capacity at constant pressure", "setting": "323.15 K", "result": "181.4 ± 5.6", "unit": "J/K/mol"}, {"measurement": "molar heat capacity at constant pressure", "setting": "328.15 K", "result": "183 ± 5.7", "unit": "J/K/mol"}, {"measurement": "molar heat capacity at constant pressure", "setting": "333.15 K", "result": "187.3 ± 5.8", "unit": "J/K/mol"}, {"measurement": "molar heat capacity at constant pressure", "setting": "338.15 K", "result": "190.4 ± 5.9", "unit": "J/K/mol"}, {"measurement": "molar heat capacity at constant pressure", "setting": "343.15 K", "result": "193 ± 6", "unit": "J/K/mol"}]}, {"compound": "O=[N+]([O-])c1cnc(O)nc1O", "note": "[2,4-pyrimidinedione, 5-nitro-]", "values": [{"measurement": "molar heat capacity at constant pressure", "setting": "298.15 K", "result": "167.2 ± 5.2", "unit": "J/K/mol"}, {"measurement": "molar heat capacity at constant pressure", "setting": "303.15 K", "result": "167.9 ± 5.2", "unit": "J/K/mol"}, {"measurement": "molar heat capacity at constant pressure", "setting": "308.15 K", "result": "169.9 ± 5.3", "unit": "J/K/mol"}, {"measurement": "molar heat capacity at constant pressure", "setting": "313.15 K", "result": "169.9 ± 5.3", "unit": "J/K/mol"}, {"measurement": "molar heat capacity at constant pressure", "setting": "318.15 K", "result": "171.1 ± 5.3", "unit": "J/K/mol"}, {"measurement": "molar heat capacity at constant pressure", "setting": "323.15 K", "result": "171.8 ± 5.3", "unit": "J/K/mol"}, {"measurement": "molar heat capacity at constant pressure", "setting": "328.15 K", "result": "173 ± 5.4", "unit": "J/K/mol"}, {"measurement": "molar heat capacity at constant pressure", "setting": "333.15 K", "result": "173.1 ± 5.4", "unit": "J/K/mol"}, {"measurement": "molar heat capacity at constant pressure", "setting": "338.15 K", "result": "174.5 ± 5.4", "unit": "J/K/mol"}, {"measurement": "molar heat capacity at constant pressure", "setting": "343.15 K", "result": "174.5 ± 5.4", "unit": "J/K/mol"}]}]}
